Results reported in patent publication US4762840A, “Pyrimido[2,1-b]benzothiazoles having antiallergic activity” (Roussel Uclaf, priority 1984, dated 1988).
pIC50: −log10 of the molar value.

tested on: lungs; test: Antigen-induced elevation of lung perfusion pressure (isolated perfused sensitized lung, ovalbumen); parameters: species or system guinea pig (Dunkin Hartley); details: Cavia porcellus; perfused lungs of ovalbumen-sensitized guinea pigs; compound in krebs fluid 30 minutes prior to second antigen dose (15 μg ovalbumen); at least four lungs per concentration; read-out: IC50 (inhibition of antigen induced broncho-constriction)
Procedure: Antigen-induced elevation of lung perfusion pressure
Male Dunkin Hartley guinea pigs (Porcellus) weighing between 450-700 g were used (four per test concentration) and were housed in cages. The animals were sensitized by two weekly exposures to 1% W/V aerosol ovalbumen. The animals were anaesthetized with 2.5 mg/kg diazepam i.p. and 1 ml/kg Hyponorm i.m. Following anaethesia, the animals were exsanguinated by severing both carotid arteries and the chest was opened and the lungs removed, split into two at the carina and both cannulated via the main lobar bronchus and connected to a perfusion system. The lungs were perfused with aerated krebs fluid (95% O2 :5% CO2) at 37° C. and 5 μg in 0.1 ml Ovalbumen was injected through an injection port proximal to each lung. Elevation of perfusion pressure by the antigen was recorded and sixty minutes later, 15 μg of ovalbumen were administered. The test compounds were added to the krebs fluid reservoir thirty minutes prior to the second antigen dose. For each weekly batch of animals used, control measurements were made without treatment (n=10 ). The second antigen response was expressed as a percentage of the first. For each test, at least four lungs from four different animals were used per concentration. The percentage inhibition of antigen induced broncho-constriction was calculated.

Q: With CCOC(=O)C(C)c1ccc2c(c1)sc1nc(=O)cc(Cc3ccccc3)n12 (stereo not drawn) [Example 27, Ethyl α-methyl-4-benzyl-2-oxo-2H-pyrimido[2,1-b]benzothiazole-8-acetate] as the molecule, how does the pIC50 read?
A: 4.00 to 5.00

Q: How did the pIC50 turn out when CC(C(=O)OC12CC3CC(CC(C3)C1)C2)c1ccc2c(c1)sc1nc(=O)cc(-c3ccccc3)n12 (stereo not drawn) [Example 50, 1-Adamantyl α-methyl-2-oxo-4-phenyl-2H-pyrimido[2,1-b]benzothiazole-8-acetate] was run?
A: ≥ 6.00

Q: CN(C)C(=O)Cc1ccc2c(c1)sc1nc(=O)cc(-c3ccccc3)n12 [Example 44, N,N-dimethyl-2-oxo-4-phenyl-2H-pyrimido[2,1-b]benzothiazole-8-acetamide] was tested. Which pIC50 did it give?
A: 4.00 to 5.00

Q: With CCOC(=O)C(C)c1ccc2c(c1)sc1nc(=O)cc(-c3ccc(Cl)cc3)n12 (stereo not drawn) [Example 22, Ethyl α-methyl 4-(4-chlorophenyl)-2-oxo-2H-pyrimido[2,1-b]benzothiazole-8-acetate] as the molecule, how does the pIC50 read?
A: 6.00 to 7.00

Q: O=C(Cc1ccc2c(c1)sc1nc(=O)cc(-c3ccccc3)n12)N1CCOCC1 [Example 46, 1-(N-morpholino)-2-(2-oxo-4-phenyl-2H-pyrimido[2,1-b]benzothiazole-8-yl)-ethanone] was tested. Which pIC50 did it give?
A: < 4.00

Q: With CCOC(=O)C(C)c1ccc2c(c1)sc1nc(=O)cc(-c3cccc(Cl)c3)n12 (stereo not drawn) [Example 23, Ethyl α-methyl 4-(3-chlorophenyl) 2-oxo-2H-pyrimido[2,1-b]benzothiazole-8-acetate] as the molecule, how does the pIC50 read?
A: ≥ 6.00

Q: CCCC(C(=O)OCC)c1ccc2c(c1)sc1nc(=O)cc(-c3ccccc3)n12 (stereo not drawn) [Example 32, Ethyl α-propyl-4-phenyl-2-oxo-2H-pyrimido[2,1-b]benzothiazole-8-acetate] was tested. Which pIC50 did it give?
A: 6.00

Q: How did the pIC50 turn out when CCOC(=O)Cc1ccc2c(c1)sc1nc(=O)cc(-c3ccccc3)n12 [Example 3, Ethyl 2-oxo-4-phenyl-2H-pyrimido[2,1-b]benzothiazole-8-acetate] was run?
A: 6.00

Q: CCCc1cc(=O)nc2sc3cc(CC(=O)OCC)ccc3n12 [Example 17, Ethyl 2-oxo-4-n-propyl-2H-pyrimido[2,1-b]benzothiazole-8-acetate] was tested. Which pIC50 did it give?
A: 5.00 to 6.00

Q: How did the pIC50 turn out when CCOC(=O)Cc1ccc2c(c1)sc1nc(=O)cc(-c3ccc(Cl)cc3)n12 [Example 11, Ethyl 4-(4-chlorophenyl)-2-oxo-2H-pyrimido[2,1-b]benzothiazole-8-acetate] was run?
A: 5.00

Q: How did the pIC50 turn out when CC(C)OC(=O)Cc1ccc2c(c1)sc1nc(=O)cc(-c3ccccc3)n12 [Example 6, Isopropyl 2-oxo-4-phenyl-2H-pyrimido[2,1-b]benzothiazole-8-acetate] was run?
A: 5.00 to 6.00

Q: How did the pIC50 turn out when CCOC(=O)C(c1ccc2c(c1)sc1nc(=O)cc(-c3ccccc3)n12)C(C)C (stereo not drawn) [Example 33, Ethyl α-isopropyl-4-phenyl-2-oxo-2H-pyrimido[2,1-b]benzothiazole-8-acetate] was run?
A: 4.00 to 5.00

Q: With CCOC(=O)C(C)(CC)c1ccc2c(c1)sc1nc(=O)cc(-c3ccccc3)n12 (stereo not drawn) [Example 37, Ethyl α-ethyl-α-methyl-4-phenyl-2-oxo-2H-pyrimido[2,1-b]benzothiazole-8-acetate] as the molecule, how does the pIC50 read?
A: 6.00
